Source: patent publication US20260146035A1, “FUSED BICYCLIC COMPOUNDS AND THEIR USE AS MER AND AXL INHIBITORS” (DONG-A ST CO., LTD., priority 2022, published 2026)
pIC50: −log10 of the molar value. Read-outs that look alike come from different tables or passages of the source.

Experiments:
[1] = target: T1, human MER (528-end) (Homo sapiens, UniProt Q12866); assay: HTRF kinase activity biochemical assay, MER; conditions: 10 μM ATP, 30 minutes pre-incubation; read-out: HTRF MERTK IC50
T1 construct: human MER (528-end); purchased Camnabio, Japan
T1 sequence (Q12866 528-999 limits assumed): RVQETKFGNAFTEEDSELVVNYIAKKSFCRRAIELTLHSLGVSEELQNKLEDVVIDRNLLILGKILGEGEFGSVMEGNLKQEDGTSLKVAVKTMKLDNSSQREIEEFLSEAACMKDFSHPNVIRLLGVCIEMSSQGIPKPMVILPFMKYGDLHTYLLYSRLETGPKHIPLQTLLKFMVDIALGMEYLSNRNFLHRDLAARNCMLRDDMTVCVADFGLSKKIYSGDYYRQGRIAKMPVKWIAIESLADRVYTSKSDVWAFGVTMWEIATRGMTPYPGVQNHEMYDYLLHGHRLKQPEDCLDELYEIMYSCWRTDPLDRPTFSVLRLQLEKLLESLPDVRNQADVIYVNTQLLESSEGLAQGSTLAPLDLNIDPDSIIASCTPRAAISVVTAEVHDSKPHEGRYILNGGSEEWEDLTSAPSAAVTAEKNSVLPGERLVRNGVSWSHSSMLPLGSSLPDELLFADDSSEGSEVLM

[2] = target: T2, human AXL (473-end) (Homo sapiens, UniProt P30530); assay: HTRF kinase activity biochemical assay, AXL; conditions: 10 μM ATP, 30 minutes pre-incubation
T2 construct: human AXL (473-end); purchased SignalChem, Canada
T2 sequence (P30530 473-894 limits assumed): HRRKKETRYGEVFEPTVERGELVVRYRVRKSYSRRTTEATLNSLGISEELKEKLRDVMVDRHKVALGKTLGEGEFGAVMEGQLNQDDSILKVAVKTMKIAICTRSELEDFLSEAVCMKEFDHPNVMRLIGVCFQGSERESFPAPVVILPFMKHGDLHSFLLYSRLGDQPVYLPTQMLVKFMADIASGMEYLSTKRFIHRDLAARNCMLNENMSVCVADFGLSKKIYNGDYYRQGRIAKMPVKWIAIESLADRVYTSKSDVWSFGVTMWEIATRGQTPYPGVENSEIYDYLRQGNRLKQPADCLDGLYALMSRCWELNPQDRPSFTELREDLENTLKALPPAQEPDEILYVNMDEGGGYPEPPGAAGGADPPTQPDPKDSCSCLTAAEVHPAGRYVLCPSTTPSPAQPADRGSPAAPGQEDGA

[3] = target: T3, human TYRO3 (455-end) (Homo sapiens, UniProt Q06418); assay: HTRF kinase activity biochemical assay, TYRO3
T3 construct: TYRO3 (455-end); purchased SignalChem, Canada
T3 sequence (Q06418 455-890 limits assumed): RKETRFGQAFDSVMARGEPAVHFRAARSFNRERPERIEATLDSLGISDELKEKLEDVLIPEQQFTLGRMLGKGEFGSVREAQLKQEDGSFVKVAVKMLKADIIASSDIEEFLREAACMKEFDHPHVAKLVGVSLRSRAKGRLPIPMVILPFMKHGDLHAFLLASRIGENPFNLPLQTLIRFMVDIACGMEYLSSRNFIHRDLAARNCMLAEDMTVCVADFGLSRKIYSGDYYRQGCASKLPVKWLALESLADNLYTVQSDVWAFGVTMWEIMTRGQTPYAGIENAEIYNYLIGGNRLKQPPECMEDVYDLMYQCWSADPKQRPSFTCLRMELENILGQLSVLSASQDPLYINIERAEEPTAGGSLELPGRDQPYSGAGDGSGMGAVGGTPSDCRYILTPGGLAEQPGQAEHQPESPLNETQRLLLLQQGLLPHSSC

[4] = 10 μM ATP, 30 minutes pre-incubation, read-out: HTRF TYRO IC50

Row | SMILES | pIC50 [1] | pIC50 [2] | pIC50 [3, 4] | pIC50 [3]
1 | Cn1cc(-c2cnc(N)c(C(=O)N[C@H]3CCC[C@@H]3OCc3ccc(-c4ccc5c(c4)CC(C)(C)C5N4CCN(CCO)CC4)cc3)c2)cn1 (stereo partly drawn) [Example 105, 2-amino-N-{(1S,2S)-2-[(4-{1-[4-(2-hydroxyethyl)piperazin-1-yl]-2,2-dimethyl-2,3-dihydro-1H-inden-5-yl}phenyl)methoxy]cyclopentyl}-5-(1-methyl-1H-pyrazol-4-yl)pyridine-3-carboxamide] | > 8.00 | > 8.00 | 6.00 to 7.00 | –
2 | Cn1cc(-c2cnc(N)c(C(=O)N[C@H]3CCC[C@@H]3OCc3ccc(-c4ccc5c(n4)C(C)(C)C(=O)N5C4CCN(CCO)CC4)cc3)c2)cn1 [Example 73, 2-amino-N-{(1S,2S)-2-[(4-{1-[1-(2-hydroxyethyl)piperidin-4-yl]-3,3-dimethyl-2-oxo-2,3-dihydro-1H-pyrrolo[3,2-b]pyridin-5-yl}phenyl)methoxy]cyclopentyl}-5-(1-methyl-1H-pyrazol-4-yl)pyridine-3-carboxamide] | 6.00 to 7.00 | < 6.00 | – | 6.00 to 7.00
3 | Cn1cc(-c2cnc(N)c(C(=O)N[C@H]3CCC[C@@H]3OCc3ccc(-c4cnc5c(c4)CCCN5C4CCN(CCO)CC4)cc3)c2)cn1 [Example 162, 2-amino-N-{(1S,2S)-2-[(4-{8-[1-(2-hydroxyethyl)piperidin-4-yl]-5,6,7,8-tetrahydro-1,8-naphthyridin-3-yl}phenyl)methoxy]cyclopentyl}-5-(1-methyl-1H-pyrazol-4-yl)pyridine-3-carboxamide] | > 8.00 | > 8.00 | 7.00 to 8.00 | –
4 | Cn1cc(-c2cnc(N)c(C(=O)N[C@H]3COC[C@@H]3OCc3ccc(-c4ccc5c(c4)CC[C@@H]5N4CCN(CCO)CC4)cc3)c2)cn1 [Example 45, 2-amino-N-{(3S,4R)-4-[(4-{(1S)-1-[4-(2-hydroxyethyl)piperazin-1-yl]-2,3-dihydro-1H-inden-5-yl}phenyl)methoxy]oxolan-3-yl}-5-(1-methyl-1H-pyrazol-4-yl)pyridine-3-carboxamide] | > 8.00 | > 8.00 | 6.00 to 7.00 | –
5 | CN1CCN(C2CC(C)(C)c3cc(-c4ccc(CO[C@H]5CCC[C@@H]5NC(=O)c5cc(-c6ccn(C)c(=O)c6)cnc5N)cc4)ccc32)CC1 (stereo partly drawn) [Example 107, 6-amino-N-[(1S,2S)-2-({4-[3,3-dimethyl-1-(4-methylpiperazin-1-yl)-2,3-dihydro-1H-inden-5-yl]phenyl}methoxy)cyclopentyl]-1′-methyl-2′-oxo-1′,2′-dihydro[3,4′-bipyridine]-5-carboxamide] | > 8.00 | > 8.00 | 7.00 to 8.00 | –
6 | Cn1cc(-c2cnc(N)c(C(=O)N[C@H]3CCC[C@@H]3OCc3ccc(-c4cnc5c(c4)C(C)(C)C(=O)N5C4CCN(CCO)CC4)cc3)c2)cn1 [Example 76, 2-amino-N-{(1S,2S)-2-[(4-{1-[1-(2-hydroxyethyl)piperidin-4-yl]-3,3-dimethyl-2-oxo-2,3-dihydro-1H-pyrrolo[2,3-b]pyridin-5-yl}phenyl)methoxy]cyclopentyl}-5-(1-methyl-1H-pyrazol-4-yl)pyridine-3-carboxamide] | 7.00 to 8.00 | 6.00 to 7.00 | – | 6.00 to 7.00
7 | Nc1ncc(-c2ccc(F)nc2)cc1C(=O)N[C@H]1CCC[C@@H]1OCc1ccc(-c2ccc3c(c2)CC(F)(F)C3N2CCN(CC(O)CO)CC2)cc1 (stereo partly drawn) [Example 62, 6-amino-N-{(1S,2S)-2-[(4-{1-[4-(2,3-dihydroxypropyl)piperazin-1-yl]-2,2-difluoro-2,3-dihydro-1H-inden-5-yl}phenyl)methoxy]cyclopentyl}-6′-fluoro[3,3′-bipyridine]-5-carboxamide] | > 8.00 | > 8.00 | < 6.00 | –
8 | CN(CCC(O)CO)C1CCc2cc(-c3ccc(CO[C@H]4CCC[C@@H]4NC(=O)c4cc(-c5cnn(C)c5)cnc4N)cc3)ccc21 (stereo partly drawn) [Example 125, 2-amino-N-{(1S,2S)-2-[(4-{1-[(3,4-dihydroxybutyl)(methyl)amino]-2,3-dihydro-1H-inden-5-yl}phenyl)methoxy]cyclopentyl}-5-(1-methyl-1H-pyrazol-4-yl)pyridine-3-carboxamide] | 7.00 to 8.00 | 7.00 to 8.00 | < 6.00 | –
